Results as given in US10351718B2, “Optical filter and imaging device” (AGC Inc., priority 2015, dated 2019).

Experiments:
[1] = Absorption characteristic of the dye in dichloromethane; type: physicochemical; conditions: for λ80 (wavelength with 80% transmittance on shorter wavelength side of λmax) / λmax − λ80: dichloromethane, transmittance at λmax set to 10%; for εA (maximum absorption coefficient in a wavelength of 430 to 550 nm) / εB (maximum absorption coefficient in a wavelength of 670 to 730 nm) / εB/εA / λmax (maximum absorption wavelength): dissolved in dichloromethane
Method: The dyes obtained above were each dissolved in dichloromethane, and using an ultraviolet-visible spectrophotometer (made by Hitachi High Technologies Co., Ltd., U-4100 type), each spectral transmittance curve was measured, from which a maximum absorption wavelength λmax, a wavelength λ80 with which the transmittance becomes 80% on a shorter wavelength side than the maximum absorption wavelength with the transmittance at the maximum absorption wavelength set to 10%, the difference between the maximum absorption wavelength λmax and the wavelength λ80 (λmax−λ80), a maximum absorption coefficient εA in a wavelength of 430 to 550 nm, a maximum absorption coefficient εB in a wavelength of 670 to 730 nm, and a ratio of these (εB/εA) were calculated. Note that measurement of the dye (A9) was not performed because its solubility was low. Further, for each of the following spectral transmittance curves, an ultraviolet-visible spectrophotometer (made by Hitachi High Technologies Co., Ltd., U-4100 type) was used.

[2] = Solubility of dye to resin solution; type: physicochemical; conditions: for Solubility Evaluation / Solubility: 12.5 mass % polyester resin OKP850 in cyclohexanone:MIBK 1:1, 50° C.; for Solubility: stirred two hours, visual; for Solubility to the resin solution (in words): polyester resin OKP850 solution, 50° C., compared to dyes without branch structure in R^1
Method: Regarding several kinds of the dyes obtained above, solubility to a resin solution was evaluated. In a solubility test, as the resin solution, there was used a solution having a resin concentration of 12.5 mass % that was prepared by dissolving a polyester resin (product name: OKP850 made by Osaka Gas Chemicals Co., Ltd.) in a mixed solvent (cyclohexanone:methyl isobutyl ketone (MIBK)=1:1). Results are illustrated in Table 5 together with the kinds of the used dyes. Incidentally, the temperature of the resin solution in the solubility test was 50° C., the dye was put into the resin solution, the resultant resin solution was stirred for two hours, and whether or not the dye was dissolved was observed visually. Evaluation criteria of the solubility are as follows.
A: Solubility greater than 10 mass %
B: Solubility greater than 5 mass % and 10 mass % or less
C: Solubility 5 mass % or less

SMILES	λ80 (wavelength with 80% transmittance on shorter wavelength side of λmax) [1] [nm]	λmax − λ80 [1] [nm]	εA (maximum absorption coefficient in a wavelength of 430 to 550 nm) [1]	εB (maximum absorption coefficient in a wavelength of 670 to 730 nm) [1]	εB/εA [1]	λmax (maximum absorption wavelength) [1] [nm]	Solubility Evaluation [2]	Solubility [2] [mass %]	Solubility to the resin solution (in words) [2]
CC1N(C)c2cc(NS(=O)(=O)c3ccc(C(F)(F)F)cc3)c(C3=C([O-])C(=c4cc5c(cc4NS(=O)(=O)c4ccc(C(F)(F)F)cc4)=[N+](C)C(C)C5(C)C)C3=O)cc2C1(C)C (stereo not drawn) [Dye A1-8]	634	61	0.0117	1	85.5	695	C (5 mass % or less)	3	
CCCCCCCCS(=O)(=O)Nc1cc2c(cc1C1=C([O-])C(=c3cc4c(cc3NS(=O)(=O)CCCCCCCC)=[N+](C)C(C)C4(C)C)C1=O)C(C)(C)C(C)N2C (stereo not drawn) [Dye A1-1]	630	61	0.0130	1	76.9	691	C (5 mass % or less)	1	
CCCCCCCCS(=O)(=O)Nc1cc2c(cc1C1=C([O-])C(=c3cc4c(cc3NS(=O)(=O)CCCCCCCC)=[N+](C(C)(C)CC)C(C)C4(C)C)C1=O)C(C)(C)C(C)N2C(C)(C)CC (stereo not drawn) [Dye A1-21]	656	49	0.0143	1	69.9	705	A (greater than 10 mass %)	12	high solubility
CC1N(C)c2cc(NS(=O)(=O)C(F)(F)F)c(C3=C([O-])C(=c4cc5c(cc4NS(=O)(=O)C(F)(F)F)=[N+](C)C(C)C5(C)C)C3=O)cc2C1(C)C (stereo not drawn) [Dye A1-2]	634	63	0.0066	1	152	697	C (5 mass % or less)	5	
CCCCCCCCS(=O)(=O)Nc1cc2c(cc1C1=C([O-])C(=c3cc4c(cc3NS(=O)(=O)CCCCCCCC)=[N+](C(C)C)C(C)C4(C)C)C1=O)C(C)(C)C(C)N2C(C)C (stereo not drawn) [Dye A1-15]	646	52	0.0112	1	89.3	698	A (greater than 10 mass %)	15	high solubility
CC(C)N1c2cc(NS(=O)(=O)c3ccc(C(F)(F)F)cc3)c(C3=C([O-])C(=c4cc5c(cc4NS(=O)(=O)c4ccc(C(F)(F)F)cc4)=[N+](C(C)C)C(C)C5(C)C)C3=O)cc2C(C)(C)C1C (stereo not drawn) [Dye A1-16]	650	52	0.0111	1	90.1	702	A (greater than 10 mass %)	12	high solubility
